In a compilation of properties of binary mixtures (doi:10.1021/acs.jced.9b01032):

Assay: xn = mol fraction of the nth substance listed
Settings: 93.2 kPa

NC=O + CCCC[n+]1ccn(C)c1.F[P-](F)(F)(F)(F)F
x2 = 0
Settings	speed of sound [m/s]
288.15 K	1619
298.15 K	1598
303.15 K	1588

CCCC[n+]1ccn(C)c1.F[P-](F)(F)(F)(F)F + NC=O
speed of sound [m/s]
Settings	288.15 K	293.15 K	298.15 K	303.15 K
x1 = 0.0502	1587	1576	1565	1554
x1 = 0.0995	1563	1552	–	1529
x1 = 0.1488	1545	1534	1522	1511
x1 = 0.2006	–	–	1508	1497
x1 = 0.3001	1513	1501	–	1478
x1 = 0.3821	–	1491	1479	1468
x1 = 0.4985	1494	1482	1470	1458
x1 = 0.595	–	1476	1464	–
x1 = 0.6976	1484	–	–	1448
x1 = 0.7792	1482	–	–	1445
x1 = 0.8902	1480	1467	1454	1442
x1 = 1	1478	1464	–	1439
